Our source for the MIC and Activity values is ChEMBL document CHEMBL1649201, “VanB-type Enterococcus faecium clinical isolate successively inducibly resistant to, dependent on, and constitutively resistant to vancomycin” (2009).

Assay [1] has as its system Enterococcus faecium. Kind of assay: Antimicrobial activity against vancomycin-resistant and teicoplanin-sensitive VanB-type Enterococcus faecium BM4659. It is filed as functional.
Assay [2] deals with Enterococcus faecium. Kind of assay: Antimicrobial activity against vancomycin-dependent VanB-type Enterococcus faecium BM4660. It is filed as functional.
Assay [3] relates to Enterococcus faecium. Nature of the assay: Antimicrobial activity against vancomycin-revertant and teicoplanin-sensitive VanB-type Enterococcus faecium BM4661. In kind it is functional.
Assay [4] addresses T1, D,D-dipeptidase (Enterococcus faecium) (UniProt Q9EYV8).
T1 sequence (whole entry): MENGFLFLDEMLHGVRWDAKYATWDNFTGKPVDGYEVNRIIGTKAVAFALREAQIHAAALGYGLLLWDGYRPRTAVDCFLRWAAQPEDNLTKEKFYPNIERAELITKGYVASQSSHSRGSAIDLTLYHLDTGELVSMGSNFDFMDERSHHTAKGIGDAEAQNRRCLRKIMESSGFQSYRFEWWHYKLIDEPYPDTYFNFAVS
Nature of the assay: Activity of D,D-dipeptidase in vancomycin-resistant and teicoplanin-sensitive VanB-type Enterococcus faecium BM4659 assessed as enzyme mediated D-Alanine release per mg protein at 8 ug/ml.

Assay [5] concerns the target T1, D,D-dipeptidase (Enterococcus faecium). Nature of the assay: Activity of D,D-dipeptidase in vancomycin-dependent VanB-type Enterococcus faecium BM4660 assessed as enzyme mediated D-Alanine release per mg protein at 8 ug/ml.
Assay [6] shares this target. Nature of the assay: Activity of D,D-dipeptidase in vancomycin-revertant and teicoplanin-sensitive VanB-type Enterococcus faecium BM4661 assessed as enzyme mediated D-Alanine release per mg protein at 8 ug/ml.
Assay [7] addresses T2, D,D-carboxypeptidase (Enterococcus faecium) (UniProt Q7BI95).
T2 sequence (whole entry): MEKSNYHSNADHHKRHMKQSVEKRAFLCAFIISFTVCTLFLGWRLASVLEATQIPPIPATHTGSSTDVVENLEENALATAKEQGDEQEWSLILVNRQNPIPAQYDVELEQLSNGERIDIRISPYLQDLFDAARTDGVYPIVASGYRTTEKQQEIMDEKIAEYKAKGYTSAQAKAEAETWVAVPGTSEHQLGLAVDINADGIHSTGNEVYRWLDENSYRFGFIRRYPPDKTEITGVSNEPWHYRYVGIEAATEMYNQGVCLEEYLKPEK
Nature of the assay: Activity of D,D-carboxypeptidase in vancomycin-resistant and teicoplanin-sensitive VanB-type Enterococcus faecium BM4659 membrane fraction assessed as enzyme mediated D-Alanine release per mg protein at 8 ug/ml.

Assay [8] addresses T2, D,D-carboxypeptidase (Enterococcus faecium). Nature of the assay: Activity of D,D-carboxypeptidase in vancomycin-dependent VanB-type Enterococcus faecium BM4660 membrane fraction assessed as enzyme mediated D-Alanine release per mg protein at 8 ug/ml.
Assay [9] has the same target. Nature of the assay: Activity of D,D-carboxypeptidase in vancomycin-revertant and teicoplanin-sensitive VanB-type Enterococcus faecium BM4661 membrane fraction assessed as enzyme mediated D-Alanine release per mg protein at 8 ug/ml.
For assay [10] the target is unchanged. Nature of the assay: Activity of D,D-carboxypeptidase in vancomycin-resistant and teicoplanin-sensitive VanB-type Enterococcus faecium BM4659 cytoplasmic fraction assessed as enzyme mediated D-Alanine release per mg protein at 8 ug/ml.
Assay [11] shares this target. Nature of the assay: Activity of D,D-carboxypeptidase in vancomycin-dependent VanB-type Enterococcus faecium BM4660 cytoplasmic fraction assessed as enzyme mediated D-Alanine release per mg protein at 8 ug/ml.
Assay [12] has the same target. Nature of the assay: Activity of D,D-carboxypeptidase in vancomycin-revertant and teicoplanin-sensitive VanB-type Enterococcus faecium BM4661 cytoplasmic fraction assessed as enzyme mediated D-Alanine release per mg protein at 8 ug/ml.

Broadly, the MIC is the smallest concentration in the dilution series that meets the test's criterion for growth inhibition. High values mean weaker potency, low ones greater potency.

In brackets after ≈: the same amount, converted by molar mass.

On to `CN[C@H](CC(C)C)C(=O)N[C@H]1C(=O)N[C@@H](CC(N)=O)C(=O)N[C@H]2C(=O)N[C@H]3C(=O)N[C@H](C(=O)N[C@H](C(=O)O)c4cc(O)cc(O)c4-c4cc3ccc4O)[C@H](O)c3ccc(c(Cl)c3)Oc3cc2cc(c3O[C@@H]2O[C@H](CO)[C@@H](O)[C@H](O)[C@H]2O[C@H]2C[C@](C)(N)[C@H](O)[C@H](C)O2)Oc2ccc(cc2Cl)[C@H]1O` [VANCOMYCIN], for which the figures for the MIC against Enterococcus faecium [1], against Enterococcus faecium [2] and with Enterococcus faecium [3] were 64 µg/mL (≈ 44.2 µM), 256 µg/mL (≈ 177 µM) and 256 µg/mL (≈ 177 µM), respectively. Besides, the Activity came to 255 nmol/min/mg in assay [4]; 99 nmol/min/mg in assay [5]; 128 nmol/min/mg in [6]; 115 nmol/min/mg in [7]; 30 nmol/min/mg in [8]; 27 nmol/min/mg in assay [9]. The Activity in assay [10] is 13 nmol/min/mg; in [11], 5.3 nmol/min/mg; in assay [12] it was 4.3 nmol/min/mg.
